Experimental data published in ChEMBL document CHEMBL1268919, “Berberine derivatives, with substituted amino groups linked at the 9-position, as inhibitors of acetylcholinesterase/butyrylcholinesterase” (Bioorg Med Chem Lett, 2010).
The source made the active and inactive calls. No cut-off for these calls is given here.

What was measured:
[1] = target: Acetylcholinesterase (Electrophorus electricus, UniProt O42275)
Description: Inhibition of electric eel AChE after 15 mins by Ellman's method using acetylcholine as substrate

[2] = target: Acetylcholinesterase (Electrophorus electricus) (UniProt O42275); assay: Mixed-type inhibition of electric eel AChE after 15 mins by Lineweaver-Burke plot analysis
Acetylcholinesterase (Electrophorus electricus), sequence (O42275 24-633 limits assumed): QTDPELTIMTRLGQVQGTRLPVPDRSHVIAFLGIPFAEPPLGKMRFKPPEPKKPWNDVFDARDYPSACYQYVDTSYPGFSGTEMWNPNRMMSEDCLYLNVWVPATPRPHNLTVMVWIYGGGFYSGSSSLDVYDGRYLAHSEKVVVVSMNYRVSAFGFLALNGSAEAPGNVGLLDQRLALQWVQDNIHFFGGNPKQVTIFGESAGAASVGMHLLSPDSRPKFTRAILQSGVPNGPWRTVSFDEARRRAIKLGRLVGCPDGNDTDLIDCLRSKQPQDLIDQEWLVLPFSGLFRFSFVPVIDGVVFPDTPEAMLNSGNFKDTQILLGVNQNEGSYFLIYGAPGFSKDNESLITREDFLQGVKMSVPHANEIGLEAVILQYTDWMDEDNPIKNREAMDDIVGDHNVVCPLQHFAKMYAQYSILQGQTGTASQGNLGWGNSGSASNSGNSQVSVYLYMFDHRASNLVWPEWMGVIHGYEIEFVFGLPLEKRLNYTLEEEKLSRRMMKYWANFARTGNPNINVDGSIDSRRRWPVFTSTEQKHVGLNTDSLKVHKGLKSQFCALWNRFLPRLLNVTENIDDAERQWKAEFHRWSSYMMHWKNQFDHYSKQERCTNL

Acetylcholinesterase, sequence (O42275 whole entry): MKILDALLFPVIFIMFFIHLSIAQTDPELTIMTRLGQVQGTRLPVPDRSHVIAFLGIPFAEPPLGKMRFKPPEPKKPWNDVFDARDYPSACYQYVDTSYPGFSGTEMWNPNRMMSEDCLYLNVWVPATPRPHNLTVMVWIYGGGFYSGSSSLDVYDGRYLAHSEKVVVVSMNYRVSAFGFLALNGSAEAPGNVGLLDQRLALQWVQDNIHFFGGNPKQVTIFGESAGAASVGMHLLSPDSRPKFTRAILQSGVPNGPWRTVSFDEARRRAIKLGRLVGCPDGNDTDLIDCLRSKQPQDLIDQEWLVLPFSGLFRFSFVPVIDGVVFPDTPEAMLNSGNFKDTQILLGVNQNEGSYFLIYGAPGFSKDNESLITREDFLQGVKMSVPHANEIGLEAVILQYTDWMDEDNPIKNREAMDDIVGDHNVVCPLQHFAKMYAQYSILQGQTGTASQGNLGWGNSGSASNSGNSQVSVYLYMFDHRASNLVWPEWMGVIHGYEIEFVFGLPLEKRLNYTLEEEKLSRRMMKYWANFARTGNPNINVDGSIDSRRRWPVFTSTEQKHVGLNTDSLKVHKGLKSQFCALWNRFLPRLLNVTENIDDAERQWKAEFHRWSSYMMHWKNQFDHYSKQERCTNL

Compound	IC50 [1] [nM]	inhibition [2]
COc1ccc2cc3[n+](cc2c1OCCCO)CCc1cc2c(cc1-3)OCO2	2370	–
COc1ccc2cc3[n+](cc2c1OCCCN1CCCC1)CCc1cc2c(cc1-3)OCO2	93	–
COc1ccc2cc3[n+](cc2c1OCCCN(C)C)CCc1cc2c(cc1-3)OCO2	201	–
COc1ccc2cc3[n+](cc2c1OCCCN1CCOCC1)CCc1cc2c(cc1-3)OCO2	456	–
COc1ccc2cc3[n+](cc2c1OCCCN1CCCCC1)CCc1cc2c(cc1-3)OCO2	52	–
CCN(CC)CCCOc1c(OC)ccc2cc3[n+](cc12)CCc1cc2c(cc1-3)OCO2	105	–
COc1ccc2cc3[n+](cc2c1OCCN(C)C)CCc1cc2c(cc1-3)OCO2	1740	–
CCCN(CCC)CCCOc1c(OC)ccc2cc3[n+](cc12)CCc1cc2c(cc1-3)OCO2	310	–
COc1ccc2cc3[n+](cc2c1OCCCNC1CCCCC1)CCc1cc2c(cc1-3)OCO2	20	Active
COc1ccc2cc3[n+](cc2c1OCCN1CCOCC1)CCc1cc2c(cc1-3)OCO2	1800	–
